Assay results reported in US11840686B2, “Modulation of prekallikrein (PKK) expression” (Ionis Pharmaceuticals, Inc., priority 2013, dated 2023).
Strand notation (5' to 3'): a small letter for the sugar, then the base; units joined by * are phosphorothioate-linked, units joined directly phosphodiester-linked; [ ] holds rarer units or linkages, { } end groups; capitals alone tell only the bases. e = 2'-O-(2-methoxyethyl) (MOE); k = constrained ethyl (cEt); [5mC] = 5-methylcytosine; d = 2'-deoxy (DNA)

Tested on: human PKK mRNA
Assay: Antisense inhibition of human PKK mRNA in HepaRG cells, 1,000 nM, MOE/deoxy/cEt oligonucleotides (Example 3)
Format: cell-based
Settings: HepaRG cells, 1,000 nM antisense oligonucleotide
Procedure, shortened: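 HepaRG cells at 20,000 per well electroporated with 1,000 nM 16-mer MOE/cEt/deoxy gapmers (phosphorothioate, 5-methylcytosine). After about 24 h, PKK mRNA measured by qRT-PCR with primer probe set RTS3454, normalized to RIBOGREEN total RNA. Reported as percent inhibition versus untreated cells.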

| Substance | % inhibition (Table 28, human PKK mRNA) [%] | % inhibition (Table 29) [%] |
| --- | --- | --- |
| 548491 (antisense eT*eG*kG*d[5mC]*d[5mC]*dA*dA*dG*d[5mC]*dA*dA*d[5mC]*d[5mC]*kA*kG*eT) [compound 548491] | 57 | – |
| 548492 (antisense eG*e[5mC]*k[5mC]*d[5mC]*dA*dA*dT*dG*dT*d[5mC]*d[5mC]*dT*dA*kA*k[5mC]*e[5mC]) [compound 548492] | 51 | – |
| 548493 (antisense e[5mC]*e[5mC]*kA*d[5mC]*d[5mC]*dG*d[5mC]*dT*dG*d[5mC]*d[5mC]*d[5mC]*dG*k[5mC]*k[5mC]*eA) [compound 548493] | 37 | – |
| 548494 (antisense eT*eG*kT*dG*dA*d[5mC]*d[5mC]*d[5mC]*d[5mC]*d[5mC]*d[5mC]*dA*d[5mC]*k[5mC]*kG*e[5mC]) [compound 548494] | 39 | – |
| 548495 (antisense eT*eT*kG*dT*dG*dA*d[5mC]*d[5mC]*d[5mC]*d[5mC]*d[5mC]*d[5mC]*dA*k[5mC]*k[5mC]*eG) [compound 548495] | 55 | – |
| 548496 (antisense eA*e[5mC]*kT*dG*dA*dA*d[5mC]*d[5mC]*d[5mC]*d[5mC]*d[5mC]*dT*dT*kA*kG*eG) [compound 548496] | 0 | – |
| 548497 (antisense e[5mC]*e[5mC]*kT*dT*d[5mC]*dA*dT*dA*d[5mC]*d[5mC]*d[5mC]*d[5mC]*dT*k[5mC]*kA*e[5mC]) [compound 548497] | 26 | – |
| 548498 (antisense e[5mC]*e[5mC]*kG*dA*dT*dA*dA*d[5mC]*dA*dG*dA*d[5mC]*d[5mC]*kG*kG*e[5mC]) [compound 548498] | 71 | – |
| 548499 (antisense eA*eT*kA*d[5mC]*d[5mC]*d[5mC]*dG*dG*dA*dG*dT*d[5mC]*dA*kG*kG*eA) [compound 548499] | 56 | – |
| 548500 (antisense eA*eT*kT*dG*d[5mC]*dT*d[5mC]*dA*dG*dG*d[5mC]*d[5mC]*d[5mC]*k[5mC]*k[5mC]*eT) [compound 548500] | 29 | – |
| 548501 (antisense e[5mC]*eA*kA*dG*d[5mC]*d[5mC]*dA*d[5mC]*dT*dA*dA*d[5mC]*d[5mC]*k[5mC]*kA*e[5mC]) [compound 548501] | 33 | – |
| 548502 (antisense eA*eA*kT*dT*d[5mC]*dT*dT*dG*dG*dA*d[5mC]*d[5mC]*dA*kA*kG*eG) [compound 548502] | 25 | – |
| 548503 (antisense e[5mC]*e[5mC]*kA*dT*d[5mC]*dT*dA*d[5mC]*dT*d[5mC]*d[5mC]*d[5mC]*d[5mC]*k[5mC]*kA*eT) [compound 548503] | 9 | – |
| 548504 (antisense eG*e[5mC]*kA*dG*d[5mC]*dG*dA*dG*d[5mC]*dA*dT*dT*d[5mC]*k[5mC]*kA*eA) [compound 548504] | 28 | – |
| 548505 (antisense eG*eG*kA*d[5mC]*dA*dA*dT*dG*d[5mC]*d[5mC]*dT*dA*dT*kG*k[5mC]*eT) [compound 548505] | 21 | – |
| 548506 (antisense eG*eA*kA*dG*d[5mC]*d[5mC]*dA*dT*dT*d[5mC]*dA*d[5mC]*dT*kG*k[5mC]*eA) [compound 548506] | 32 | – |
| 548507 (antisense eA*eA*kA*d[5mC]*dT*d[5mC]*d[5mC]*dT*d[5mC]*dT*d[5mC]*dA*dA*kG*kG*e[5mC]) [compound 548507] | 53 | – |
| 548508 (antisense eG*e[5mC]*kA*d[5mC]*d[5mC]*dA*d[5mC]*d[5mC]*dA*dT*dG*d[5mC]*dG*kG*kT*eT) [compound 548508] | 43 | – |
| 548509 (antisense eT*eG*k[5mC]*dA*dG*dG*dG*d[5mC]*dT*dG*d[5mC]*dG*d[5mC]*kA*kG*eT) [compound 548509] | 41 | – |
| 548510 (antisense eT*eT*kA*dG*d[5mC]*d[5mC]*dA*d[5mC]*dT*d[5mC]*d[5mC]*dT*d[5mC]*kT*kT*eG) [compound 548510] | 30 | – |
| 548511 (antisense eA*eG*k[5mC]*dT*dA*dG*d[5mC]*dT*dG*dA*d[5mC]*d[5mC]*d[5mC]*k[5mC]*kA*eA) [compound 548511] | 16 | – |
| 548512 (antisense eT*e[5mC]*k[5mC]*dG*d[5mC]*d[5mC]*dT*dT*dT*dG*dG*dA*dT*kA*k[5mC]*eT) [compound 548512] | 49 | – |
| 548513 (antisense e[5mC]*e[5mC]*kT*dG*d[5mC]*dT*dG*dA*dT*dT*dG*dT*dG*kT*k[5mC]*eT) [compound 548513] | 16 | – |
| 548514 (antisense eT*e[5mC]*kG*dA*dG*dG*dA*d[5mC]*dA*dG*d[5mC]*d[5mC]*d[5mC]*k[5mC]*k[5mC]*eA) [compound 548514] | 40 | – |
| 548515 (antisense eA*e[5mC]*k[5mC]*d[5mC]*dG*dT*d[5mC]*dA*dG*d[5mC]*d[5mC]*dT*d[5mC]*kA*kG*e[5mC]) [compound 548515] | 59 | – |
| 548516 (antisense e[5mC]*eT*kT*dG*d[5mC]*d[5mC]*dT*dA*dT*dT*d[5mC]*dA*d[5mC]*k[5mC]*k[5mC]*e[5mC]) [compound 548516] | 49 | – |

| Substance | % inhibition (Table 28, human PKK mRNA) [%] | % inhibition (Table 29) [%] |
| --- | --- | --- |
| 548517 (antisense e[5mC]*eG*kG*dA*d[5mC]*dA*dA*dG*d[5mC]*d[5mC]*dT*dT*dA*k[5mC]*kA*eG) [compound 548517] | 43 | – |
| 548518 (antisense e[5mC]*eA*k[5mC]*dA*d[5mC]*dT*dT*dA*d[5mC]*d[5mC]*d[5mC]*d[5mC]*dG*k[5mC]*kT*e[5mC]) [compound 548518] | 12 | – |
| 548519 (antisense e[5mC]*e[5mC]*kT*d[5mC]*d[5mC]*d[5mC]*d[5mC]*dT*dT*dG*dT*dG*dT*kG*kT*e[5mC]) [compound 548519] | 31 | – |
| 548520 (antisense e[5mC]*e[5mC]*kG*d[5mC]*dT*dT*d[5mC]*d[5mC]*d[5mC]*dT*dG*dA*d[5mC]*kT*kG*eT) [compound 548520] | 43 | – |
| 548522 (antisense eA*eG*kG*dT*dA*dT*dT*dG*dA*d[5mC]*d[5mC]*dG*d[5mC]*k[5mC]*kA*eG) [compound 548522] | 55 | – |
| 548523 (antisense eG*eG*kT*dA*dA*dA*dT*d[5mC]*d[5mC]*dA*dT*d[5mC]*d[5mC]*k[5mC]*k[5mC]*eT) [compound 548523] | 44 | – |
| 548524 (antisense eG*e[5mC]*k[5mC]*d[5mC]*dG*dA*dT*d[5mC]*dA*d[5mC]*d[5mC]*dT*dT*kA*kG*eA) [compound 548524] | 45 | – |
| 548525 (antisense eG*eT*k[5mC]*dT*dA*dA*d[5mC]*dT*dG*dG*d[5mC]*d[5mC]*dT*kG*kG*e[5mC]) [compound 548525] | 2 | – |
| 548526 (antisense e[5mC]*eT*kA*dA*dG*d[5mC]*dT*dG*dT*dG*dT*d[5mC]*dT*k[5mC]*kA*eT) [compound 548526] | 26 | – |
| 548527 (antisense eT*eG*kT*dT*dT*d[5mC]*dA*dA*dG*dT*dG*d[5mC]*d[5mC]*kA*kG*eA) [compound 548527] | 50 | – |
| 548528 (antisense eT*eG*k[5mC]*dA*dG*dT*dG*dG*dT*d[5mC]*dA*dA*dG*k[5mC]*kA*eT) [compound 548528] | 32 | – |
| 548529 (antisense eG*e[5mC]*kG*dA*dT*dT*d[5mC]*d[5mC]*dT*dT*dG*d[5mC]*d[5mC]*kT*k[5mC]*eT) [compound 548529] | 56 | – |
| 548530 (antisense eA*eT*kA*dA*dT*dA*dG*dA*dG*dG*d[5mC]*dA*dG*k[5mC]*k[5mC]*eA) [compound 548530] | 50 | – |
| 548531 (antisense eG*eT*k[5mC]*dA*dG*dA*dA*dG*dG*d[5mC]*d[5mC]*dT*d[5mC]*kT*kT*eA) [compound 548531] | 21 | – |
| 548532 (antisense eT*eA*kT*dT*dT*dA*dT*d[5mC]*d[5mC]*dG*dA*d[5mC]*d[5mC]*kT*k[5mC]*eT) [compound 548532] | 34 | – |
| 548533 (antisense eG*eA*kG*dG*dT*dG*dG*dT*dT*dG*dG*dA*dG*k[5mC]*kT*eA) [compound 548533] | 9 | – |
| 548534 (antisense e[5mC]*eA*kG*dA*dT*d[5mC]*d[5mC]*d[5mC]*dA*dA*dT*dT*d[5mC]*kT*kT*e[5mC]) [compound 548534] | 22 | – |
| 548535 (antisense eG*eA*kG*dT*d[5mC]*dT*dT*dT*d[5mC]*d[5mC]*dA*dA*dT*k[5mC]*k[5mC]*eT) [compound 548535] | 13 | – |
| 548536 (antisense eT*e[5mC]*kT*d[5mC]*dA*dA*dT*d[5mC]*d[5mC]*d[5mC]*dA*dA*d[5mC]*k[5mC]*k[5mC]*e[5mC]) [compound 548536] | – | 0 |
| 548537 (antisense e[5mC]*e[5mC]*kT*d[5mC]*dA*dA*dT*d[5mC]*d[5mC]*d[5mC]*dA*dA*d[5mC]*k[5mC]*k[5mC]*eA) [compound 548537] | – | 0 |
| 548538 (antisense eT*eA*kG*dT*dG*dG*d[5mC]*dA*dA*dG*dA*dA*d[5mC]*k[5mC]*kA*e[5mC]) [compound 548538] | – | 0 |
| 548539 (antisense e[5mC]*eG*k[5mC]*dG*d[5mC]*dG*dA*dA*dT*dG*d[5mC]*d[5mC]*dT*kG*k[5mC]*e[5mC]) [compound 548539] | – | 41 |
| 548540 (antisense eG*eA*k[5mC]*dA*d[5mC]*d[5mC]*dT*dG*d[5mC]*dT*dT*dG*dA*kT*kT*eA) [compound 548540] | – | 7 |
| 548541 (antisense eG*eG*k[5mC]*dA*d[5mC]*dT*dG*dG*dT*d[5mC]*dA*dT*dG*kG*kA*e[5mC]) [compound 548541] | – | 39 |
| 548542 (antisense eG*e[5mC]*kG*d[5mC]*d[5mC]*dA*dT*d[5mC]*d[5mC]*dT*dT*d[5mC]*dA*kA*kT*e[5mC]) [compound 548542] | – | 7 |
| 548543 (antisense eG*eA*kT*d[5mC]*d[5mC]*dA*d[5mC]*d[5mC]*d[5mC]*dA*dT*dG*dA*k[5mC]*k[5mC]*eT) [compound 548543] | – | 32 |
